The test system of one assay is A549. Nature of the assay: Cytotoxicity against human A549 cells by MTT assay. Format: functional, cell-based. For orientation: Formazan colour is commonly taken as a measure of viable cells.
The next assay deals with HeLa. Description: Cytotoxicity against human HeLa cells by MTT assay. In kind it is functional, cell-based.
In another assay the test system is Staphylococcus aureus. Description: Antimicrobial activity against methicillin-resistant Staphylococcus aureus after 16 hrs by broth microdilution method. In kind it is functional. (In broth dilution the organism is exposed to a series of concentrations in liquid medium.)
The test system of the next assay is Bacillus subtilis. Description: Antimicrobial activity against Bacillus subtilis after 16 hrs by broth microdilution method. Format: functional.
In a further assay the test system is Escherichia coli. Description: Antimicrobial activity against Escherichia coli after 16 hrs by broth microdilution method. In kind it is functional.
In the next assay the test system is Candida albicans. Nature of the assay: Antimicrobial activity against Candida albicans after 16 hrs by broth microdilution method. In kind it is functional.

The structures appear in SMILES notation. pIC50: −log10 of the molar value.

As usually defined, the pIC50 is the negative decadic logarithm of the IC50, by convention in mol/L. A high value points to a small IC50. By MIC is commonly meant the lowest concentration that inhibits growth of the organism.

`C[C@@H]1C[C@@H](O)[C@]2(O)O[C@@H]3C[C@@]4(C=O)[C@@H](CC[C@@H]5[C@@H]4CC[C@]4(C)[C@@H](C6=CC(=O)OC6)C[C@@H](O)[C@]54O)C[C@H]3O[C@@H]2C1`: the pIC50 is 7.10 with A549 and 6.89 in the assay with HeLa. Also, the minimum inhibitory concentration (MIC) in the assay with Staphylococcus aureus, in the assay on Bacillus subtilis, with Escherichia coli and in the assay with Candida albicans was more than 100 µg/mL throughout.
Take `CO[C@@H]1C[C@@H](C)C[C@H]2O[C@@H]3C[C@@H]4CC[C@@H]5[C@H](CC[C@]6(C)[C@@H](C7=CC(=O)OC7)C[C@@H](O)[C@]56O)[C@@]4(C=O)C[C@H]3O[C@@]12O`: the values for the negative-log IC50 (pIC50) in the assay with A549 and in the assay on HeLa were 7.19 and 6.98, respectively. In addition, the MIC in the assay with Staphylococcus aureus, with Bacillus subtilis, against Escherichia coli and in the assay with Candida albicans was more than 100 µg/mL throughout.
Consider `C[C@@H]1C[C@@H](O)[C@]2(O)O[C@@H]3C[C@@]4(C)[C@@H](CC[C@@H]5[C@@H]4CC[C@]4(C)[C@@H](C6=CC(=O)OC6)C[C@@H](O)[C@]54O)C[C@H]3O[C@@H]2C1`, for which the pIC50 in the assay with A549 was 6.46; with HeLa it was 6.18. The minimum inhibitory concentration (MIC) in the assay with Staphylococcus aureus, in the assay with Bacillus subtilis, with Escherichia coli and with Candida albicans was more than 100 µg/mL throughout.
On to `C[C@H]1C[C@H]2O[C@@H]3C[C@@H]4CC[C@@H]5[C@H](CC[C@]6(C)[C@@H](C7=CC(=O)OC7)CC[C@]56O)[C@@]4(C=O)C[C@H]3O[C@@]2(O)[C@H](O)[C@@H]1O`, for which the negative logarithm of the IC50 (pIC50) was 7.24 with A549 and 7.06 in the assay on HeLa. The MIC in the assay on Staphylococcus aureus, with Bacillus subtilis, against Escherichia coli and with Candida albicans was more than 100 µg/mL throughout.
Consider `C[C@H]1C[C@H]2O[C@@H]3C[C@@H]4CC[C@@H]5[C@H](CC[C@]6(C)[C@@H](C7=CC(=O)OC7)C[C@@H](O)[C@]56O)[C@@]4(C=O)C[C@H]3O[C@@]2(O)[C@@]2(C1)N=CCS2`, for which the pIC50 in the assay with A549 was 6.80; in the assay on HeLa, 6.50. Further, the MIC against Staphylococcus aureus, with Bacillus subtilis, against Escherichia coli and in the assay with Candida albicans was more than 100 µg/mL each time.
In the case of `C[C@]12[C@H](O)C[C@H]3[C@@H](CC[C@H]4C[C@H](O)CC[C@@]43CO)[C@@]1(O)CC[C@@H]2C1=CC(=O)OC1`, the pIC50 in the assay on A549 is 6.22; with HeLa it was 5.94. Further, the minimal inhibitory concentration (MIC) in the assay with Staphylococcus aureus, with Bacillus subtilis, in the assay with Escherichia coli and in the assay with Candida albicans was more than 100 µg/mL throughout.
For `C[C@]12[C@H](O)C[C@H]3[C@@H](CC[C@H]4C[C@H](O)CC[C@@]43C=O)[C@@]1(O)CC[C@@H]2C1=CC(=O)OC1`, the pIC50 was 5.99 in the assay with A549 and 5.84 in the assay with HeLa. For the same compound, the MIC against Staphylococcus aureus, against Bacillus subtilis, in the assay on Escherichia coli and against Candida albicans was more than 100 µg/mL each time.
In the case of `C[C@]12C[C@@H](O)[C@H](O)C[C@@H]1CC[C@@H]1[C@@H]2CC[C@]2(C)[C@@H](C3=CC(=O)OC3)C[C@@H](O)[C@]12O`, the values for the pIC50 in the assay on A549 and in the assay on HeLa were 5.77 and 5.61, respectively. The MIC against Staphylococcus aureus, against Bacillus subtilis, with Escherichia coli and in the assay with Candida albicans was more than 100 µg/mL each time.
Consider `C[C@]12[C@H](O)C[C@H]3[C@@H](CC[C@H]4C[C@@H](O)CC[C@@]43CO)[C@@]1(O)CC[C@@H]2C1=CC(=O)OC1`, for which the pIC50 in the assay with A549 is 6.26; with HeLa, 6.06. Besides, the MIC with Staphylococcus aureus, in the assay on Bacillus subtilis, with Escherichia coli and in the assay on Candida albicans was more than 100 µg/mL in each case.
As to `C[C@@H]1C[C@@H](O)[C@]2(O)O[C@@H]3C[C@@]4(C=O)[C@@H](CC[C@@H]5[C@@H]4CC[C@]4(C)[C@@H](C6=CC(=O)OC6)CC[C@]54O)C[C@H]3O[C@@H]2O1` [CALACTIN], the MIC in the assay on Staphylococcus aureus, against Bacillus subtilis, in the assay with Escherichia coli and against Candida albicans was more than 100 µg/mL each time.
With `C[C@@H]1C[C@@]2(N=CCS2)[C@]2(O)O[C@@H]3C[C@@]4(C=O)[C@@H](CC[C@@H]5[C@@H]4CC[C@]4(C)[C@@H](C6=CC(=O)OC6)CC[C@]54O)C[C@H]3O[C@@H]2O1` [USCHARIN], the pIC50 in the assay with A549 is 6.98; in the assay on HeLa, 6.56. Moreover, the MIC with Staphylococcus aureus, with Bacillus subtilis, in the assay with Escherichia coli and with Candida albicans was more than 100 µg/mL throughout.

The record behind these values is ChEMBL document CHEMBL3616435, “Cytotoxic cardenolides from the latex of Calotropis procera” (Bioorg Med Chem Lett, 2015).
